The values below are quoted from earlier work in US8415362B2, “Pyrazolyl substituted pyrrolo[2,3-b]pyrimidines as Janus kinase inhibitors” (Incyte Corporation, priority 2005, dated 2013).

For one data set, the target named is T1, JAK3 (Mus musculus, UniProt Q62137).
T1 construct: host or cells: NOD mouse (in vivo)
T1 sequence (Q62137 1-1100): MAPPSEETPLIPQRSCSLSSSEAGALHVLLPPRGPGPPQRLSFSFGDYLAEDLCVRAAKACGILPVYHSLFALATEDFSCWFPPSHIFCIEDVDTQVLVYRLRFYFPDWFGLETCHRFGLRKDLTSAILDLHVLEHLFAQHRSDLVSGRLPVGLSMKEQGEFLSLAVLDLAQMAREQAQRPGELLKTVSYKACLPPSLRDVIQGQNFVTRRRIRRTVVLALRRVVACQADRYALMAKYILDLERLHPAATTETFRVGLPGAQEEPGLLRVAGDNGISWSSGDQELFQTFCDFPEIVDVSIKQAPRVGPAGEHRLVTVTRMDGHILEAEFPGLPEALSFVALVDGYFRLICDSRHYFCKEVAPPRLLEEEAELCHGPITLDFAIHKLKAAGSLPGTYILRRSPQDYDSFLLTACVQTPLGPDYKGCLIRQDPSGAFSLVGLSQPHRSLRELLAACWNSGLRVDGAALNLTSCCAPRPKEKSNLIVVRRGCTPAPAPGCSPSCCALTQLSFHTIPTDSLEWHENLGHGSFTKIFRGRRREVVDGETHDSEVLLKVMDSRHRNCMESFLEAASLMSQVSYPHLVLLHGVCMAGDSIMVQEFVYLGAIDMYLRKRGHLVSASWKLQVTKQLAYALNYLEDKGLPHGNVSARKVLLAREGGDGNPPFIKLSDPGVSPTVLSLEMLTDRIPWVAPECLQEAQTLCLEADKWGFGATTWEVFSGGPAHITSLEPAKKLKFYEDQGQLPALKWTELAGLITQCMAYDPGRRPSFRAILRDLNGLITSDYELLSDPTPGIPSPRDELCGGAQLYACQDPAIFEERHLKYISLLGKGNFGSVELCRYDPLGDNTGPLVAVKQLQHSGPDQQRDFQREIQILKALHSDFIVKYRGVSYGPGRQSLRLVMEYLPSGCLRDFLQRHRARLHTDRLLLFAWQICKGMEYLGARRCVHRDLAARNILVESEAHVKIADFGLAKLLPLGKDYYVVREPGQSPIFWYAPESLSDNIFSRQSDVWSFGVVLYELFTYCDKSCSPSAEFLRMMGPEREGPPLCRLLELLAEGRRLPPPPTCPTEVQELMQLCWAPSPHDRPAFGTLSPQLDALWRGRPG

The conditions of data set [1]: some patients.
The test system of data set [2] is myeloid dendritic cells (DCs). As to conditions: DCs arrested at an immature level.
For data set [3], the system named is IL-6-dependent MM cell lines.

`COc1cc2ncnc(Nc3ccc(O)cc3)c2cc1OC` [JANEX-1]: the onset of diabetes result at JAK3 (NOD mouse model of autoimmune type I diabetes) is reported as “delayed the onset of diabetes”. In addition, the immunomodulatory activity entry on JAK3 (mouse, in vivo) is “potent immunomodulatory activity”.

In the case of `C#Cc1cccc(Nc2ncnc3cc(OCCOC)c(OCCOC)cc23)c1` [Tarceva], the acneiform rash entry in data set [1] is recorded as “induced acneiform rash”.

As to `COc1cc2ncnc(Nc3ccc(O)c(Br)c3)c2cc1OC` [WHI-P-154], the “CD40-induced effects (JAK3 activity, costimulatory molecule expression, IL-12 production, allogeneic stimulatory capacity)” value in data set [2] is “prevented these effects”.

As to `N#C/C(=C\c1ccc(O)c(O)c1)C(=O)NCc1ccccc1` [tyrphostin AG490], in data set [3] (IL-6-dependent MM cell lines), the “ERK2 and STAT3 phosphorylation” value is “inhibited”; the JAK2 kinase activity entry is “inhibited”; the apoptosis result is on record as “induced”; the cell proliferation entry is recorded as “suppressed”. The “dormancy of tumor cells” value in data set [3] (in some cases, then protects the tumor cells from death) was “induce dormancy of tumor cells”.
